# Assay results from US20070128217A1 (priority 2003, published 2007).
# Columns and labels:
# [1] = system: rabbit serum obtained by immunizing a rabbit with the SARS-CoV strain Frankfurt 1; type: binding; design: Binding of a rabbit serum to linear peptides / Binding of a rabbit serum to looped peptides / Rabbit serum linear peptides / Rabbit serum looped peptides / Binding of a rabbit serum to linear peptides of protein N of SARS-CoV Urbani (Rabbit serum linear peptides) / Binding of a rabbit serum to looped/cyclic peptides of protein N of SARS-CoV Urbani (Rabbit serum looped peptides): unit not given here
# [2] = system: antibodies in sera from SARS patients (sera 1a, 1b, 2, 6, 37, 62, London, SARS-yellow, SARS-green); type: binding, human; design: Binding of serum 6 to linear peptides of protein X1 of SARS-CoV Urbani / Binding of serum 37 to linear peptides of protein X1 of SARS-CoV Urbani / Binding of serum 6 to looped/cyclic peptide (PEPSCAN-ELISA) / Binding of serum 37 to looped/cyclic peptide (PEPSCAN-ELISA) / Binding of serum 37 to looped/cyclic peptides of protein X1 of SARS-CoV Urbani / Binding of serum 6 to linear peptides of protein X2 / Binding of serum 37 to linear peptides of protein X2 / Binding of serum 37 to looped/cyclic peptides of protein X2 of SARS-CoV Urbani / Binding of serum 6 to linear peptides of protein M of SARS-CoV Urbani / Binding of serum 37 to linear peptides of protein M of SARS-CoV Urbani / Binding of serum 6 to looped/cyclic peptides of protein M of SARS-CoV Urbani / Binding of serum 37 to looped/cyclic peptides of protein M of SARS-CoV Urbani / Binding of serum 6 to linear peptides of protein X3 of SARS-CoV Urbani / Binding of serum 37 to linear peptides of protein X3 of SARS-CoV Urbani / Binding of serum 37 to looped/cyclic peptides of protein X3 of SARS-CoV Urbani / Binding of serum 6 to linear peptides of protein X4 of SARS-CoV Urbani / Binding of serum 37 to linear peptides of protein X4 of SARS-CoV Urbani / Binding of serum 37 to looped/cyclic peptides of protein X4 of SARS-CoV Urbani / Binding of serum 6 to linear peptides of protein X5 of SARS-CoV Urbani / Binding of serum 37 to linear peptides of protein X5 of SARS-CoV Urbani / Binding of serum 37 to looped/cyclic peptides of protein X5 of SARS-CoV Urbani / Binding of serum 6 to linear peptides of protein N of SARS-CoV Urbani / Binding of serum 37 to linear peptides of protein N of SARS-CoV Urbani / Binding of serum 6 to linear peptide (PEPSCAN-ELISA) / Binding of serum 1a to looped/cyclic peptides of protein N of SARS-CoV Urbani / Binding of serum 1b to looped/cyclic peptides of protein N of SARS-CoV Urbani / Binding of serum 2 to looped/cyclic peptides of protein N of SARS-CoV Urbani / Binding of serum 6 to looped/cyclic peptides of protein N of SARS-CoV Urbani / Binding of serum 37 to looped/cyclic peptides of protein N of SARS-CoV Urbani / Binding of serum 62 to looped/cyclic peptides of protein N of SARS-CoV Urbani / Binding of serum London to looped/cyclic peptides of protein N of SARS-CoV Urbani / Binding of serum SARS-green to looped/cyclic peptides of protein N of SARS-CoV Urbani: unit not given here
# [3] = system: control sera (pooled serum of ten healthy LUMC hospital workers; commercial negative donor pooled serum from the Dutch bloodbank); type: binding, human; design: Binding of Control serum LUMC to linear peptides / Binding of Control serum Blood-bank to linear peptides / Binding of Control serum LUMC to looped peptides / Binding of Control Serum Blood-Bank to Looped peptides / Binding of Control serum LUMC to linear peptides of the protein M of SARS-CoV Urbani / Binding of Control serum Blood-bank to linear peptides of the protein M of SARS-CoV Urbani / Binding of Control serum LUMC to looped peptides of the protein M of SARS-CoV Urbani / Binding of Control Serum Blood-Bank to Looped peptides of the protein M of SARS-CoV Urbani: unit not given here
# [4] = system: recombinant human anti-SARS-CoV antibody 03-018; type: binding; design: Binding of antibody 03-018 to linear peptides of the N protein of SARS-CoV Urbani / Binding of antibody 03-018 to looped/cyclic peptides of the N protein of SARS-CoV Urbani: unit not given here
Sequence,Binding of a rabbit serum to linear peptides of protein N of SARS-CoV Urbani (Rabbit serum linear peptides) [1],Binding of a rabbit serum to looped/cyclic peptides of protein N of SARS-CoV Urbani (Rabbit serum looped peptides) [1],Binding of serum 1a to linear peptides of protein N of SARS-CoV Urbani [2],Binding of serum 1a to looped/cyclic peptides of protein N of SARS-CoV Urbani [2],Binding of serum 1b to linear peptides of protein N of SARS-CoV Urbani [2],Binding of serum 1b to looped/cyclic peptides of protein N of SARS-CoV Urbani [2],Binding of serum 2 to linear peptides of protein N of SARS-CoV Urbani [2],Binding of serum 2 to looped/cyclic peptides of protein N of SARS-CoV Urbani [2],Binding of serum 6 to linear peptides of protein N of SARS-CoV Urbani [2],Binding of serum 6 to looped/cyclic peptides of protein N of SARS-CoV Urbani [2],Binding of serum 37 to linear peptides of protein N of SARS-CoV Urbani [2],Binding of serum 37 to looped/cyclic peptides of protein N of SARS-CoV Urbani [2],Binding of serum 62 to linear peptides of protein N of SARS-CoV Urbani [2],Binding of serum 62 to looped/cyclic peptides of protein N of SARS-CoV Urbani [2],Binding of serum London to linear peptides of protein N of SARS-CoV Urbani [2],Binding of serum London to looped/cyclic peptides of protein N of SARS-CoV Urbani [2],Binding of serum SARS-green to linear peptides of protein N of SARS-CoV Urbani [2],Binding of serum SARS-green to looped/cyclic peptides of protein N of SARS-CoV Urbani [2],Binding of serum SARS-yellow to linear peptides of protein N of SARS-CoV Urbani [2],Binding of serum SARS-yellow to looped/cyclic peptides of protein N of SARS-CoV Urbani [2],other results
GTGPEASLPYGANKE,0.1,0.3,0.3,0.2,0.1,0.2,0.3,0.2,0.2,0.1,0.9,0.4,0.9,0.3,0.7,0.3,0.7,0.2,0.6,0.2,Binding of Control Serum Blood-Bank to Looped peptides [3]: 0.4; Binding of Control serum Blood-bank to linear peptides [3]: 0.7; Binding of Control serum LUMC to linear peptides [3]: 0.8; Binding of Control serum LUMC to looped peptides [3]: 0.4; Binding of antibody 03-018 to linear peptides of the N protein of SARS-CoV Urbani [4]: 0.1; Binding of antibody 03-018 to looped/cyclic peptides of the N protein of SARS-CoV Urbani [4]: 0.2
GAIKLDDKDPQFKDN,0.1,0.3,0.2,0.3,0.1,0.2,0.2,0.4,0.2,0.2,0.7,0.5,0.9,0.5,0.6,0.4,0.5,0.8,0.7,0.5,Control Serum Blood-Bank Looped peptides [3]: 0.6; Control serum Blood-bank linear peptides [3]: 0.7; Control serum LUMC linear peptides [3]: 0.7; Control serum LUMC looped peptides [3]: 0.5; Binding of antibody 03-018 to linear peptides of the N protein of SARS-CoV Urbani [4]: 0.1; Binding of antibody 03-018 to looped/cyclic peptides of the N protein of SARS-CoV Urbani [4]: 0.2
NGGRNGARPKQRRPQ,0.1,1.1,0.2,0.3,0.1,0.2,0.2,0.3,0.2,0.3,0.7,0.6,0.7,0.5,0.5,0.3,0.5,0.4,0.5,0.5,Binding of Control Serum Blood-Bank to Looped peptides [3]: 0.7; Binding of Control serum Blood-bank to linear peptides [3]: 0.6; Binding of Control serum LUMC to linear peptides [3]: 0.6; Binding of Control serum LUMC to looped peptides [3]: 0.7; Binding of antibody 03-018 to linear peptides of the N protein of SARS-CoV Urbani [4]: 0.2; Binding of antibody 03-018 to looped/cyclic peptides of the N protein of SARS-CoV Urbani [4]: 0.3
QSNQRSAPRITFGGP,,,0.2,0.5,0.1,0.3,0.2,0.6,0.1,0.4,0.7,0.8,0.7,0.7,0.4,0.5,0.5,0.5,0.5,0.7,Recognition of the peptide by the rabbit serum [1]: also recognized; Binding of Control Serum Blood-Bank to Looped peptides [3]: 0.7; Binding of Control serum Blood-bank to linear peptides [3]: 0.6; Binding of Control serum LUMC to linear peptides [3]: 0.5; Binding of Control serum LUMC to looped peptides [3]: 0.9; Recognition of the peptide by antibody 03-018 [4]: recognized
